Measurements: patent US7524936B2, “Mitogenic oxygenase regulators” (Emory University, priority 2000, dated 2009)

B1: p67phox: recombinant human cytosolic factor of the phagocyte respiratory-burst oxidase (protein, UniProt P19878 1-526, looked up)
Neutrophil cytosol factor 2: MSLVEAISLWNEGVLAADKKDWKGALDAFSAVQDPHSRICFNIGCMYTILKNMTEAEKAFTRSINRDKHLAVAYFQRGMLYYQTEKYDLAIKDLKEALIQLRGNQLIDYKILGLQFKLFACEVLYNIAFMYAKKEEWKKAEEQLALATSMKSEPRHSKIDKAMECVWKQKLYEPVVIPVGKLFRPNERQVAQLAKKDYLGKATVVASVVDQDSFSGFAPLQPQAAEPPPRPKTPEIFRALEGEAHRVLFGFVPETKEELQVMPGNIVFVLKKGNDNWATVMFNGQKGLVPCNYLEPVELRIHPQQQPQEESSPQSDIPAPPSSKAPGRPQLSPGQKQKEEPKEVKLSVPMPYTLKVHYKYTVVMKTQPGLPYSQVRDMVSKKLELRLEHTKLSYRPRDSNELVPLSEDSMKDAWGQVKNYCLTLWCENTVGDQGFPDEPKESEKADANNQTTEPQLKKGSQVEALFSYEATQPEDLEFQEGDIILVLSKVNEEWLEGECKGKVGIFPKVFVEDCATTDLESTRREV
B2: p47phox: recombinant human cytosolic factor of the phagocyte respiratory-burst oxidase (protein, UniProt P14598 1-390, looked up)
Neutrophil cytosol factor 1: MGDTFIRHIALLGFEKRFVPSQHYVYMFLVKWQDLSEKVVYRRFTEIYEFHKTLKEMFPIEAGAINPENRIIPHLPAPKWFDGQRAAENRQGTLTEYCSTLMSLPTKISRCPHLLDFFKVRPDDLKLPTDNQTKKPETYLMPKDGKSTATDITGPIILQTYRAIANYEKTSGSEMALSTGDVVEVVEKSESGWWFCQMKAKRGWIPASFLEPLDSPDETEDPEPNYAGEPYVAIKAYTAVEGDEVSLLEGEAVEVIHKLLDGWWVIRKDDVTGYFPSMYLQKSGQDVSQAQRQIKRGAPPRRSSIRNAHSIHQRSRKRLSQDAYRRNSVRFLQQRRRQARPGPQSPGSPLEEERQTQRSKPQPAVPPRPSADLILNRCSESTKRKLASAV

Experiments:
[1] = system: Nox 4 enzyme and Nox 5 enzyme; experiment: cell-free assay for Nox 4 / Nox 5 NADPH-oxidase activity (NADPH-dependent chemiluminescence); format: biochemical, human; details: MgCl2 1-5 mM; cell lysate, 200 μM NADPH, 10 μM lucigenin, 37° C.
Procedure: In an alternate and preferred embodiment of the present invention, cells that are stably transfected with Nox 4 (YA28), Nox 5 (YA28) or with empty vector (NEF2) are grown in 10 cm tissue culture plates in medium containing DMEM, 10% calf serum, 100 units/ml penicillin, 100 μg/ml streptomycin, and 1 μg/ml puromycin to approximately 80% confluency. Cells (five tissue culture plates of each cell type) are washed briefly with 5 ml phosphate buffered saline (PBS) then dissociated from the plates with PBS containing 5 mM EDTA. Cells are pelleted by centrifuging briefly at 1000×g.
To permeabilize the cells, freeze thaw lysis is carried out and this is followed by passage of the cell material through a small bore needle. The supernatant is removed and the cells are frozen on dry ice for 15 minutes. […]
The cell lysates are assayed for protein concentration using the BioRad protein assay system. […] The reaction is initiated by adding 1.5 mM NADPH and 75 μM lucigenin to the assay mix to give a final concentration of 200 μM NADPH and 10 μM lucigenin, and the chemiluminescence is monitored immediately. […] The plate is monitored continuously for 60 minutes and the maximal relative luminescence unit (RLU) value for each sample is used for the graph. […]

[2] = system: lysates of NIH 3T3 cells stably transfected with the human Nox 4 gene or human Nox 5 gene; experiment: NADPH-dependent superoxide generation, lucigenin luminescence assay in cell lysates; format: biochemical; details: 30 μg cell lysate, 200 μM NADPH, 500 μM lucigenin
Procedure: In one embodiment of the present invention, NIH 3T3 cells stably transfected with the human Nox 4 gene (SEQ ID NO:1) or human Nox 5 gene (SEQ ID NO:3) are analyzed for superoxide generation using the lucigenin (Bis-N-methylacridinium luminescence assay (Sigma, St. Louis, Mo., Li et al. (1998) J. Biol. Chem. 273, 2015-2023). Cells are washed with cold HANKS' solution and homogenized on ice in HANKS' buffer containing 15% sucrose using a Dounce homogenizer. Cell lysates are frozen immediately in a dry ice/ethanol bath. For the assay, 30 μg of cell lysate is mixed with 200 μM NADPH and 500 μM lucigenin. Luminescence is monitored using a LumiCounter (Packard) at three successive one minute intervals and the highest value was used for comparison. Protein concentration is determined by the Bradford method.
Superoxide generation is monitored in lysates from some of the stably transfected cell lines and is compared with superoxide generation by the untransfected NIH 3T3 cell lysates.

Molecule	enhancement of NADPH-oxidase activity [1]	luminescent signal (superoxide generation) [2]
[Cl-].[Cl-].[Mg+2] [MgCl2]	about 2 fold	–
c1ccc2c(c1)[I+]c1ccccc1-2 [diphenylene iodonium, reference compound]	–	inhibited
superoxide dismutase [reference compound]	–	inhibited
B1	–	unaffected
B2	–	unaffected
